From PubChem BioAssay AID2060899 (Molecular Pharmacology Branch, DTP, NCI, 2025)
Blank lines part the entries; values can stand above or below the molecule they belong to.

System: 565726-208-R1-J5-PDC complex spheroids, growth inhibition
Assay: Anticancer human tumor 565726-208-R1-J5-PDC patient-derived pancreatic adenocarcinoma cell line growth inhibition [RAS]
Details: for IC50: curve of first compound; for viability, T/C: stronger effect = lower value
Summary of the method: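 Tumour cells grown as complex spheroids with HUVEC endothelial cells and mesenchymal stem cells, treated with RAS pathway inhibitor combinations. Each agent spans half-log steps from near clinical Cmax, or 10 microM where Cmax is unknown.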

[1] = second compound 0.00316 µM, first compound 0.000949 µM
[2] = second compound 0.00316 µM, first compound 0.003 µM
[3] = second compound 0.00316 µM, first compound 0.00949 µM
[4] = second compound 0.00316 µM, first compound 0.03 µM
[5] = second compound 0.00316 µM, first compound 0.0949 µM
[6] = second compound 0.00316 µM, first compound 0.3 µM
[7] = second compound 0.01 µM, first compound 0.000949 µM
[8] = second compound 0.01 µM, first compound 0.003 µM
[9] = second compound 0.01 µM, first compound 0.00949 µM
[10] = second compound 0.01 µM, first compound 0.03 µM
[11] = second compound 0.01 µM, first compound 0.0949 µM
[12] = second compound 0.01 µM, first compound 0.3 µM
[13] = second compound 0.0316 µM, first compound 0.000949 µM
[14] = second compound 0.0316 µM, first compound 0.003 µM
[15] = second compound 0.0316 µM, first compound 0.00949 µM
[16] = second compound 0.0316 µM, first compound 0.03 µM
[17] = second compound 0.0316 µM, first compound 0.0949 µM
[18] = second compound 0.0316 µM, first compound 0.3 µM
[19] = second compound 0.1 µM, first compound 0.000949 µM
[20] = second compound 0.1 µM, first compound 0.003 µM
[21] = second compound 0.1 µM, first compound 0.00949 µM
[22] = second compound 0.1 µM, first compound 0.03 µM
[23] = second compound 0.1 µM, first compound 0.0949 µM
[24] = second compound 0.1 µM, first compound 0.3 µM
[25] = second compound 0.316 µM, first compound 0.000949 µM
[26] = second compound 0.316 µM, first compound 0.003 µM
[27] = second compound 0.316 µM, first compound 0.00949 µM
[28] = second compound 0.316 µM, first compound 0.03 µM
[29] = second compound 0.316 µM, first compound 0.0949 µM
[30] = second compound 0.316 µM, first compound 0.3 µM
[31] = second compound 1 µM, first compound 0.000949 µM
[32] = second compound 1 µM, first compound 0.003 µM
[33] = second compound 1 µM, first compound 0.00949 µM
[34] = second compound 1 µM, first compound 0.03 µM
[35] = second compound 1 µM, first compound 0.0949 µM
[36] = second compound 1 µM, first compound 0.3 µM
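Also: spheroids exposed to compounds for seven days before readout.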
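For viability, T/C in this document: 100% = DMSO vehicle control viability.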

IC50 (second compound 0.00316 µM): < 31.6 nM
IC50 (second compound 0.01 µM): < 31.6 nM
IC50 (second compound 0.0316 µM): < 31.6 nM
IC50 (second compound 0.1 µM): < 31.6 nM
IC50 (second compound 0.316 µM): < 31.6 nM
IC50 (second compound 1 µM): < 31.6 nM
SMILES: CC(=O)OC12COC1CC(O)C1(C)C(=O)C(O)C3=C(C)C(OC(=O)C(O)C(NC(=O)OC(C)(C)C)c4ccccc4)CC(O)(C(OC(=O)c4ccccc4)C21)C3(C)C (stereo unspecified) + C=CC(=O)N1CCN(c2nc(OCC3CCCN3C)nc3c(F)c(-c4nc(N)cc(C)c4C(F)(F)F)c(Cl)cc23)C(C)C1
viability, T/C (second compound 0.00316 µM, first compound 0.0316 µM): 22.4%
viability, T/C (second compound 0.00316 µM, first compound 0.1 µM): 20.6%
viability, T/C (second compound 0.00316 µM, first compound 0.316 µM): 22.6%
viability, T/C (second compound 0.00316 µM, first compound 1 µM): 19.4%
viability, T/C (second compound 0.00316 µM, first compound 3.16 µM): 30%
viability, T/C (second compound 0.00316 µM, first compound 10 µM): 37.1%
viability, T/C (second compound 0.01 µM, first compound 0.0316 µM): 25%
viability, T/C (second compound 0.01 µM, first compound 0.1 µM): 21.8%
viability, T/C (second compound 0.01 µM, first compound 0.316 µM): 21.1%
viability, T/C (second compound 0.01 µM, first compound 1 µM): 23.5%
viability, T/C (second compound 0.01 µM, first compound 3.16 µM): 32.6%
viability, T/C (second compound 0.01 µM, first compound 10 µM): 47.7%
viability, T/C (second compound 0.0316 µM, first compound 0.0316 µM): 31.6%
viability, T/C (second compound 0.0316 µM, first compound 0.1 µM): 26.6%
viability, T/C (second compound 0.0316 µM, first compound 0.316 µM): 24.9%
viability, T/C (second compound 0.0316 µM, first compound 1 µM): 21%
viability, T/C (second compound 0.0316 µM, first compound 3.16 µM): 29.5%
viability, T/C (second compound 0.0316 µM, first compound 10 µM): 44.8%
viability, T/C (second compound 0.1 µM, first compound 0.0316 µM): 26%
viability, T/C (second compound 0.1 µM, first compound 0.1 µM): 23%
viability, T/C (second compound 0.1 µM, first compound 0.316 µM): 26%
viability, T/C (second compound 0.1 µM, first compound 1 µM): 19%
viability, T/C (second compound 0.1 µM, first compound 3.16 µM): 27.7%
viability, T/C (second compound 0.1 µM, first compound 10 µM): 42.8%
viability, T/C (second compound 0.316 µM, first compound 0.0316 µM): 21.1%
viability, T/C (second compound 0.316 µM, first compound 0.1 µM): 26.6%
viability, T/C (second compound 0.316 µM, first compound 0.316 µM): 22.4%
viability, T/C (second compound 0.316 µM, first compound 1 µM): 24.9%
viability, T/C (second compound 0.316 µM, first compound 3.16 µM): 28%
viability, T/C (second compound 0.316 µM, first compound 10 µM): 45.9%
viability, T/C (second compound 1 µM, first compound 0.0316 µM): 34.8%
viability, T/C (second compound 1 µM, first compound 0.1 µM): 24.1%
viability, T/C (second compound 1 µM, first compound 0.316 µM): 22.1%
viability, T/C (second compound 1 µM, first compound 1 µM): 26.4%
viability, T/C (second compound 1 µM, first compound 3.16 µM): 34.4%
viability, T/C (second compound 1 µM, first compound 10 µM): 50.1%

IC50 (second compound 0.00316 µM): 6.76 nM
IC50 (second compound 0.01 µM): 7.74 nM
IC50 (second compound 0.0316 µM): 5.42 nM
IC50 (second compound 0.1 µM): 5.76 nM
IC50 (second compound 0.316 µM): 6.16 nM
IC50 (second compound 1 µM): 6.81 nM
SMILES: CC1(C)CCC(Nc2ncc(C(F)(F)F)c(-c3c[nH]c4c(P(C)(C)=O)c(C#N)ccc34)n2)CN1 (stereo unspecified) + C=CC(=O)N1CCN(c2nc(OCC3CCCN3C)nc3c(F)c(-c4nc(N)cc(C)c4C(F)(F)F)c(Cl)cc23)C(C)C1
viability, T/C [1]: 133%
viability, T/C [2]: 73.7%
viability, T/C [3]: 40.1%
viability, T/C [4]: 40.4%
viability, T/C [5]: 41.2%
viability, T/C [6]: 37.3%
viability, T/C [7]: 136%
viability, T/C [8]: 74.6%
viability, T/C [9]: 46%
viability, T/C [10]: 34.2%
viability, T/C [11]: 41.3%
viability, T/C [12]: 39.9%
viability, T/C [13]: 127%
viability, T/C [14]: 65.8%
viability, T/C [15]: 34.2%
viability, T/C [16]: 28.4%
viability, T/C [17]: 39.7%
viability, T/C [18]: 37.7%
viability, T/C [19]: 143%
viability, T/C [20]: 67.7%
viability, T/C [21]: 33.7%
viability, T/C [22]: 36.8%
viability, T/C [23]: 39%
viability, T/C [24]: 36.5%
viability, T/C [25]: 130%
viability, T/C [26]: 67.3%
viability, T/C [27]: 40.2%
viability, T/C [28]: 32.5%
viability, T/C [29]: 38%
viability, T/C [30]: 34.6%
viability, T/C [31]: 140%
viability, T/C [32]: 70.2%
viability, T/C [33]: 41.7%
viability, T/C [34]: 38.9%
viability, T/C [35]: 36.5%
viability, T/C [36]: 38.9%

IC50 (second compound 0.00316 µM): 4.93 nM
IC50 (second compound 0.01 µM): 4.61 nM
IC50 (second compound 0.0316 µM): 5.78 nM
IC50 (second compound 0.1 µM): 5.53 nM
IC50 (second compound 0.316 µM): 3.96 nM
IC50 (second compound 1 µM): 5.1 nM
SMILES: CCc1c2c(nc3ccc(O)cc13)-c1cc3c(c(=O)n1C2)COC(=O)[C@]3(O)CC + C=CC(=O)N1CCN(c2nc(OCC3CCCN3C)nc3c(F)c(-c4nc(N)cc(C)c4C(F)(F)F)c(Cl)cc23)C(C)C1
viability, T/C [1]: 88.2%
viability, T/C [2]: 61.3%
viability, T/C [3]: 34.5%
viability, T/C [4]: 23.3%
viability, T/C [5]: 15.2%
viability, T/C [6]: 7.24%
viability, T/C [7]: 98.5%
viability, T/C [8]: 58.2%
viability, T/C [9]: 33.8%
viability, T/C [10]: 24.9%
viability, T/C [11]: 14.3%
viability, T/C [12]: 8.62%
viability, T/C [13]: 121%
viability, T/C [14]: 68.4%
viability, T/C [15]: 35.4%
viability, T/C [16]: 21.1%
viability, T/C [17]: 13.2%
viability, T/C [18]: 8.94%
viability, T/C [19]: 134%
viability, T/C [20]: 64.1%
viability, T/C [21]: 39.3%
viability, T/C [22]: 18.2%
viability, T/C [23]: 15.1%
viability, T/C [24]: 8.7%
viability, T/C [25]: 113%
viability, T/C [26]: 53%
viability, T/C [27]: 33.1%
viability, T/C [28]: 21.1%
viability, T/C [29]: 13.3%
viability, T/C [30]: 8.96%
viability, T/C [31]: 130%
viability, T/C [32]: 59.1%
viability, T/C [33]: 35%
viability, T/C [34]: 32.9%
viability, T/C [35]: 18.6%
viability, T/C [36]: 11.7%
